Data as given in patent US20250122183A1 (Pfizer Inc., priority 2023, published 2025).

Key:
Type in all cases: biochemical
[1] = target: KAT7+BRPF1+EAF6+ING5 4 protein complex (Homo sapiens (Human), UniProt O95251); assay: KAT7 BRPF1 assay (SAMDI-MS acetylation of H3 1-21 peptide); settings: Morrison equation fit; replicate number in parentheses
KAT6A Full length enzyme = KAT6A Full length enzyme (Homo sapiens (Human), UniProt Q92794); assay: KAT6A assay (SAMDI-MS acetylation of H3 1-21 peptide); settings: Morrison equation fit; replicate number in parentheses; read-out: KAT6A Ki (nM) (replicate number)
KAT8 Full length enzyme = KAT8 Full length enzyme (Homo sapiens (Human), UniProt Q9H7Z6); assay: KAT8 assay (SAMDI-MS acetylation of H3 1-21 peptide); settings: Morrison equation fit; replicate number in parentheses; read-out: KAT8 Ki (nM) (replicate number)
[2] = target: KAT7+BRPF2+EAF6+ING5 4 protein complex (Homo sapiens (Human), UniProt O95251); assay: KAT7 BRPF2 assay (SAMDI-MS acetylation of H3 1-21 peptide); settings: Morrison equation fit; replicate number in parentheses; read-out: KAT7 BRPF2 Ki (nM) (replicate number)
KAT5 Full length enzyme = KAT5 Full length enzyme (Homo sapiens (Human), UniProt Q92993); assay: KAT5 assay (SAMDI-MS acetylation of H4 1-21 peptide); settings: Morrison equation fit; replicate number in parentheses; read-out: KAT5 Ki (nM) (replicate number)
[3] = target: KAT7+JADE1+EAF6+ING5 4 protein complex (Homo sapiens (Human), UniProt O95251); assay: KAT7 JADE1 assay (SAMDI-MS acetylation of H3 1-21 peptide); settings: Morrison equation fit; replicate number in parentheses; read-out: KAT7 JADE1 Ki (nM) (replicate number)

Chain of KAT8 Full length enzyme (Q9H7Z6 whole entry): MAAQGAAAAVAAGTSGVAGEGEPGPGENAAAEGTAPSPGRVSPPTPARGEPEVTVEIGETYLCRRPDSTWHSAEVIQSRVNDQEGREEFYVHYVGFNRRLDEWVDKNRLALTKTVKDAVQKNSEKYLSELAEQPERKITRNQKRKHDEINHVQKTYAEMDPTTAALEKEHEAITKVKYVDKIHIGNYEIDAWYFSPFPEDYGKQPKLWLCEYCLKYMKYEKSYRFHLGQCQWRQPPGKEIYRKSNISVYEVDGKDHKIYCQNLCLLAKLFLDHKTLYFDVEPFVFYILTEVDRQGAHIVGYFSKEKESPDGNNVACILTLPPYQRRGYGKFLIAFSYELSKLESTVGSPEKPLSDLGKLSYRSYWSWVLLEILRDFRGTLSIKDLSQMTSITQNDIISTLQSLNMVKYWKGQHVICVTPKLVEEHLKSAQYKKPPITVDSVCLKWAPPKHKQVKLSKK
Chain of KAT5 Full length enzyme (Q92993 whole entry): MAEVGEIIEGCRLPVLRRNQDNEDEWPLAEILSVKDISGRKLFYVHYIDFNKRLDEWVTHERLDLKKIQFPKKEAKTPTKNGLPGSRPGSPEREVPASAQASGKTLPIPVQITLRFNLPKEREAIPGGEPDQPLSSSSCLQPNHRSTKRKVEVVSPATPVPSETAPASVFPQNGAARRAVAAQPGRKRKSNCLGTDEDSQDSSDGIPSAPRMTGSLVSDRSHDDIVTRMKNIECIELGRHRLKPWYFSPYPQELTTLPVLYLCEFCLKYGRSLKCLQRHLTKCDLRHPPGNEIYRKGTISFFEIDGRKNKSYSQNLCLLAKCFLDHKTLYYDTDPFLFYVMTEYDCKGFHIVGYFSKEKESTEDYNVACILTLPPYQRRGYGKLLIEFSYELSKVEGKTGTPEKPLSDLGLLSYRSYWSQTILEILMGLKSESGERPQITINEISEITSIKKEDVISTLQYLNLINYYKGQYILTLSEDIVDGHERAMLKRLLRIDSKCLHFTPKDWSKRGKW
Chain of KAT6A Full length enzyme (Q92794 other isoform, or with tags, fused parts or gaps): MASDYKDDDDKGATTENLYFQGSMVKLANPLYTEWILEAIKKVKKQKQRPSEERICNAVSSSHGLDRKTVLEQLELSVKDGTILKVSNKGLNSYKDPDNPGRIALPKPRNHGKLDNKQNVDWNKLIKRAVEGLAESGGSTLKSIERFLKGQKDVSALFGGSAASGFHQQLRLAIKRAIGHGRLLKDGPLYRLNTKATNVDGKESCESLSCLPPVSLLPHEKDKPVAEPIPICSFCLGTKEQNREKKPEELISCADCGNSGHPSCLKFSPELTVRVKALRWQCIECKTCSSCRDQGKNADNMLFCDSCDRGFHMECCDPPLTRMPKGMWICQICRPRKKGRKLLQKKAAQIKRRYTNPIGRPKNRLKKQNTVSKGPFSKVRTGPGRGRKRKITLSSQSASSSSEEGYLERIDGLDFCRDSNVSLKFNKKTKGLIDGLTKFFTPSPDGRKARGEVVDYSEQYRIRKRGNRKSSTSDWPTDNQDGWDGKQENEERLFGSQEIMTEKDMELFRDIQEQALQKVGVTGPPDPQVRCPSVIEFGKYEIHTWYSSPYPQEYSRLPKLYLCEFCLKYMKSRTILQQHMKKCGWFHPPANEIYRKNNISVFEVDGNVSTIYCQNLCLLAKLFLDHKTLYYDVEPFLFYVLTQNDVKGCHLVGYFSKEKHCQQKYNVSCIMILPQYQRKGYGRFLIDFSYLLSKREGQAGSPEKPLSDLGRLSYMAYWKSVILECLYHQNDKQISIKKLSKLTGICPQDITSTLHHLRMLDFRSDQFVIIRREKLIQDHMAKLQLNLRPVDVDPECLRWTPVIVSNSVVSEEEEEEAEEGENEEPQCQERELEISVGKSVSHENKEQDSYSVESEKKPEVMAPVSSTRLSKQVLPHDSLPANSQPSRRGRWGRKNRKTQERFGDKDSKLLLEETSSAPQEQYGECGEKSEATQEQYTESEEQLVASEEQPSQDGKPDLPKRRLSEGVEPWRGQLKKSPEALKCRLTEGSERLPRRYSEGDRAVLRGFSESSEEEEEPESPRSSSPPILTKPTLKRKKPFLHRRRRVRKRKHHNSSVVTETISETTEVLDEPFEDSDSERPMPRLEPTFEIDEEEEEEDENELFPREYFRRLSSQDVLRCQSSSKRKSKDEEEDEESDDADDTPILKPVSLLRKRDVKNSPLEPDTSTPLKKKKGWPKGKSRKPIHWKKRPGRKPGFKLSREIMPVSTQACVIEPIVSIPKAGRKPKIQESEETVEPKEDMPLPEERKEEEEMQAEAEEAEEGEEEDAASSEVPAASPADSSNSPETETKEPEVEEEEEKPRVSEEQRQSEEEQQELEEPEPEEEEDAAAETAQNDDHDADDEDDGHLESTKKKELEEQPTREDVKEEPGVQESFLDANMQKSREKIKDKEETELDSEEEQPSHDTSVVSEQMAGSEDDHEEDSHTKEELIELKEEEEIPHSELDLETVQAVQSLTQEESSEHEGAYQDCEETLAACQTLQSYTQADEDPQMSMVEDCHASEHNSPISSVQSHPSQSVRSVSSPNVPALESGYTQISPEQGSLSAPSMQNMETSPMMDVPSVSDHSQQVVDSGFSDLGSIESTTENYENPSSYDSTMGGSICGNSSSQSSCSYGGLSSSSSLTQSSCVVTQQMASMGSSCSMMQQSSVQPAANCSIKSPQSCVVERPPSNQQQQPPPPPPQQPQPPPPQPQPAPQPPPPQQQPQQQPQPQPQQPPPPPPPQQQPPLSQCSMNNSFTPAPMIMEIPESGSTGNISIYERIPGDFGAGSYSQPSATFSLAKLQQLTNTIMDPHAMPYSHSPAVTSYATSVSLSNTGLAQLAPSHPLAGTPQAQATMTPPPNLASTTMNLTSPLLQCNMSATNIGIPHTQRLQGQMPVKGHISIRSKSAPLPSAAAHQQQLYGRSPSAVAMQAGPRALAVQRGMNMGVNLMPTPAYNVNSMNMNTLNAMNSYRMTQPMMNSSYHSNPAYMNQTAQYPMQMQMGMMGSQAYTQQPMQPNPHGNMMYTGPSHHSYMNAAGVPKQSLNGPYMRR

Structure (SMILES): COc1cccc(OC)c1S(=O)(=O)Nc1noc2cc(Nc3cc[nH]n3)cc(OC)c12 [Example 01, 2,6-Dimethoxy-N-{4-methoxy-6-[(1H-pyrazol-3-yl)amino]-1,2-benzoxazol-3-yl}benzene-1-sulfonamide]
- Ki [1]: 37.7 nM
- Ki (KAT6A Full length enzyme): 0.4 nM
- Ki (KAT8 Full length enzyme): 455 nM
- Ki [2]: 37 nM
- Ki (KAT5 Full length enzyme): 441 nM
- Ki [3]: 131 nM

Structure (SMILES): CCc1cc(Nc2cc3onc(NS(=O)(=O)c4c(OC)cccc4OC)c3cc2OC)[nH]n1 [Example 02, N-{6-[(3-ethyl-1H-pyrazol-5-yl)amino]-5-methoxy-1,2-benzoxazol-3-yl}-2,6-dimethoxybenzene-1-sulfonamide]
- Ki [1]: 3.5 nM
- Ki (KAT6A Full length enzyme): 1.1 nM
- Ki (KAT8 Full length enzyme): 2270 nM
- Ki [2]: 4.8 nM
- Ki (KAT5 Full length enzyme): 305 nM
- Ki [3]: 19.5 nM

Structure (SMILES): COc1cc2c(NS(=O)(=O)c3c(OC)cccc3OC)noc2cc1Nc1cc[nH]n1 [Example 03, 2,6-Dimethoxy-N-{5-methoxy-6-[(1H-pyrazol-3-yl)amino]-1,2-benzoxazol-3-yl}benzene-1-sulfonamide]
- Ki [1]: 40.6 nM
- Ki (KAT6A Full length enzyme): 0.5 nM
- Ki (KAT8 Full length enzyme): 861 nM
- Ki [2]: 43.6 nM
- Ki (KAT5 Full length enzyme): 138 nM
- Ki [3]: 105 nM

Structure (SMILES): COc1cc2c(NS(=O)(=O)c3c(OC)cccc3OC)noc2cc1Nc1ccn(C)n1 [Example 04, 2,6-Dimethoxy-N-{5-methoxy-6-[(1-methyl-1H-pyrazol-3-yl)amino]-1,2-benzoxazol-3-yl}benzene-1-sulfonamide]
- Ki [1]: 67.2 nM
- Ki (KAT6A Full length enzyme): 0.7 nM
- Ki (KAT8 Full length enzyme): 1230 nM
- Ki [2]: 57.2 nM
- Ki (KAT5 Full length enzyme): 367 nM
- Ki [3]: 251 nM

Structure (SMILES): COc1cc2c(NS(=O)(=O)c3ccccc3OC)noc2cc1Nc1cc(C)n[nH]1 [Example 06, 2-Methoxy-N-{5-methoxy-6-[(3-methyl-1H-pyrazol-5-yl)amino]-1,2-benzoxazol-3-yl}benzene-1-sulfonamide]
- Ki [1]: 47.1 nM
- Ki (KAT6A Full length enzyme): 0.8 nM
- Ki (KAT8 Full length enzyme): > 13000 nM
- Ki [2]: 50.5 nM
- Ki (KAT5 Full length enzyme): 300 nM
- Ki [3]: 148 nM

Structure (SMILES): COc1ccccc1S(=O)(=O)Nc1noc2cc(Nc3cc[nH]n3)cc(OC)c12 [Example 09, 2-methoxy-N-{4-methoxy-6-[(1H-pyrazol-3-yl)amino]-1,2-benzoxazol-3-yl}benzene-1-sulfonamide]
- Ki [1]: 51.8 nM
- Ki (KAT6A Full length enzyme): 0.8 nM
- Ki (KAT8 Full length enzyme): 1190 nM
- Ki [2]: 90.7 nM
- Ki (KAT5 Full length enzyme): 642 nM
- Ki [3]: 202 nM

Structure (SMILES): COc1cccc(OC)c1S(=O)(=O)Nc1noc2cc(Nc3ncc[nH]3)cc(OC)c12 [Example 15, N-{6-[(1H-imidazol-2-yl)amino]-4-methoxy-1,2-benzoxazol-3-yl}-2,6-dimethoxybenzene-1-sulfonamide]
- Ki [1]: 67.8 nM
- Ki (KAT6A Full length enzyme): 1.2 nM
- Ki (KAT8 Full length enzyme): 1320 nM
- Ki [2]: 100 nM
- Ki (KAT5 Full length enzyme): 1330 nM
- Ki [3]: 256 nM

Structure (SMILES): COc1cc2c(NS(=O)(=O)c3ccccc3OC)noc2cc1Nc1cc[nH]n1 [Example 22, 2-methoxy-N-{5-methoxy-6-[(1H-pyrazol-3-yl)amino]-1,2-benzoxazol-3-yl}benzene-1-sulfonamide]
- Ki [1]: 108 nM
- Ki (KAT6A Full length enzyme): 0.9 nM
- Ki (KAT8 Full length enzyme): 1700 nM
- Ki [2]: 186 nM
- Ki (KAT5 Full length enzyme): 488 nM
- Ki [3]: 300 nM

Structure (SMILES): COc1cc2c(NS(=O)(=O)c3ccc(C)cc3OC)noc2cc1Nc1cc[nH]n1 [Example 23, 2-methoxy-N-{5-methoxy-6-[(1H-pyrazol-3-yl)amino]-1,2-benzoxazol-3-yl}-4-methylbenzene-1-sulfonamide]
- Ki [1]: 36.7 nM
- Ki (KAT6A Full length enzyme): 0.9 nM
- Ki (KAT8 Full length enzyme): 1060 nM
- Ki [2]: 95.2 nM
- Ki (KAT5 Full length enzyme): 418 nM
- Ki [3]: 212 nM

Structure (SMILES): COc1cc2c(NS(=O)(=O)c3cc(C)ccc3OC)noc2cc1Nc1cc[nH]n1 [Example 24, 2-methoxy-N-{5-methoxy-6-[(1H-pyrazol-3-yl)amino]-1,2-benzoxazol-3-yl}-5-methylbenzene-1-sulfonamide]
- Ki [1]: 88.5 nM
- Ki (KAT6A Full length enzyme): 0.9 nM
- Ki (KAT8 Full length enzyme): 440 nM
- Ki [2]: 182 nM
- Ki (KAT5 Full length enzyme): 236 nM
- Ki [3]: 285 nM

Structure (SMILES): COc1cc2c(NS(=O)(=O)c3cc(C(C)C)c(C)cc3OC)noc2cc1Nc1cc[nH]n1 [Example 26, 2-methoxy-N-{5-methoxy-6-[(1H-pyrazol-3-yl)amino]-1,2-benzoxazol-3-yl}-4-methyl-5-(propan-2-yl)benzene-1-sulfonamide]
- Ki [1]: 14.7 nM
- Ki (KAT6A Full length enzyme): 0.6 nM
- Ki (KAT8 Full length enzyme): 154 nM
- Ki [2]: 71.5 nM
- Ki (KAT5 Full length enzyme): 189 nM
- Ki [3]: 206 nM

Structure (SMILES): COc1cc2c(NS(=O)(=O)c3ccc(Cl)cc3OC)noc2cc1Nc1cc[nH]n1 [Example 27, 4-chloro-2-methoxy-N-{5-methoxy-6-[(1H-pyrazol-3-yl)amino]-1,2-benzoxazol-3-yl}benzene-1-sulfonamide]
- Ki [1]: 74.7 nM
- Ki (KAT6A Full length enzyme): 1.3 nM
- Ki (KAT8 Full length enzyme): 893 nM
- Ki [2]: 124 nM
- Ki (KAT5 Full length enzyme): 390 nM
- Ki [3]: 220 nM

Structure (SMILES): CCOc1ccccc1S(=O)(=O)Nc1noc2cc(Nc3cc[nH]n3)c(OC)cc12 [Example 28, 2-ethoxy-N-{5-methoxy-6-[(1H-pyrazol-3-yl)amino]-1,2-benzoxazol-3-yl}benzene-1-sulfonamide]
- Ki [1]: 97.1 nM
- Ki (KAT6A Full length enzyme): 1.2 nM
- Ki (KAT8 Full length enzyme): 3110 nM
- Ki [2]: 141 nM
- Ki (KAT5 Full length enzyme): 630 nM
- Ki [3]: 290 nM

Structure (SMILES): CCOc1cc(C)ccc1S(=O)(=O)Nc1noc2cc(Nc3cc[nH]n3)c(OC)cc12 [Example 29, 2-ethoxy-N-{5-methoxy-6-[(1H-pyrazol-3-yl)amino]-1,2-benzoxazol-3-yl}-4-methylbenzene-1-sulfonamide]
- Ki [1]: 40.5 nM
- Ki (KAT6A Full length enzyme): 1 nM
- Ki (KAT8 Full length enzyme): 1380 nM
- Ki [2]: 49.1 nM
- Ki (KAT5 Full length enzyme): 594 nM
- Ki [3]: 182 nM

Structure (SMILES): COc1cc2c(NS(=O)(=O)c3c(OC)cccc3OCC(F)F)noc2cc1Nc1cc[nH]n1 [Example 31, 2-(2,2-difluoroethoxy)-6-methoxy-N-{5-methoxy-6-[(1H-pyrazol-3-yl)amino]-1,2-benzoxazol-3-yl}benzene-1-sulfonamide]
- Ki [1]: 79.9 nM
- Ki (KAT6A Full length enzyme): 0.8 nM
- Ki (KAT8 Full length enzyme): 781 nM
- Ki [2]: 104 nM
- Ki (KAT5 Full length enzyme): 977 nM
- Ki [3]: 325 nM

Structure (SMILES): COc1cc2c(NS(=O)(=O)c3c(OC)cccc3OC(C)C)noc2cc1Nc1cc[nH]n1 [Example 32, 2-methoxy-N-{5-methoxy-6-[(1H-pyrazol-3-yl)amino]-1,2-benzoxazol-3-yl}-6-[(propan-2-yl)oxy]benzene-1-sulfonamide]
- Ki [1]: 89.7 nM
- Ki (KAT8 Full length enzyme): > 16300 nM
- Ki [2]: 79.5 nM
- Ki (KAT5 Full length enzyme): 2740 nM
- Ki [3]: 361 nM

Structure (SMILES): COc1cc2c(NS(=O)(=O)c3c(OC)cccc3OC)noc2cc1Nc1ncn(C)n1 [Example 35, 2,6-dimethoxy-N-{5-methoxy-6-[(1-methyl-1H-1,2,4-triazol-3-yl)amino]-1,2-benzoxazol-3-yl}benzene-1-sulfonamide]
- Ki [1]: 48.3 nM
- Ki (KAT6A Full length enzyme): 3 nM
- Ki (KAT8 Full length enzyme): 9110 nM
- Ki [2]: 156 nM
- Ki (KAT5 Full length enzyme): 1760 nM
- Ki [3]: 527 nM

Structure (SMILES): COc1cc2c(NS(=O)(=O)c3c(OC)cccc3OC)noc2cc1Nc1n[nH]c(C)n1 [Example 36, 2,6-dimethoxy-N-{5-methoxy-6-[(5-methyl-1H-1,2,4-triazol-3-yl)amino]-1,2-benzoxazol-3-yl}benzene-1-sulfonamide]
- Ki [1]: 93 nM
- Ki (KAT6A Full length enzyme): 1 nM
- Ki (KAT8 Full length enzyme): 2990 nM
- Ki [2]: 106 nM
- Ki (KAT5 Full length enzyme): 1080 nM
- Ki [3]: 501 nM

Structure (SMILES): CCn1ccc(Nc2cc3onc(NS(=O)(=O)c4c(OC)cccc4OC)c3cc2OC)n1 [Example 39, N-{6-[(1-ethyl-1H-pyrazol-3-yl)amino]-5-methoxy-1,2-benzoxazol-3-yl}-2,6-dimethoxybenzene-1-sulfonamide]
- Ki [1]: 75.3 nM
- Ki (KAT6A Full length enzyme): 6.1 nM
- Ki (KAT8 Full length enzyme): > 32600 nM
- Ki [2]: 98.2 nM
- Ki (KAT5 Full length enzyme): 1750 nM
- Ki [3]: 175 nM

Structure (SMILES): CCc1nc(Nc2cc3onc(NS(=O)(=O)c4c(OC)cccc4OC)c3cc2OC)n[nH]1 [Example 40, N-{6-[(5-ethyl-1H-1,2,4-triazol-3-yl)amino]-5-methoxy-1,2-benzoxazol-3-yl}-2,6-dimethoxybenzene-1-sulfonamide]
- Ki [1]: 49.1 nM
- Ki (KAT6A Full length enzyme): 3.1 nM
- Ki (KAT8 Full length enzyme): > 16300 nM
- Ki [2]: 156 nM
- Ki (KAT5 Full length enzyme): 4600 nM
- Ki [3]: 526 nM

Structure (SMILES): COC(=O)c1cc(Nc2cc3onc(NS(=O)(=O)c4c(OC)cccc4OC)c3cc2OC)[nH]n1 [Example 55, methyl 5-({3-[(2,6-dimethoxybenzene-1-sulfonyl)amino]-5-methoxy-1,2-benzoxazol-6-yl}amino)-1H-pyrazole-3-carboxylate]
- Ki [1]: 199 nM
- Ki (KAT6A Full length enzyme): 2.4 nM
- Ki [2]: 147 nM
- Ki [3]: 663 nM

Structure (SMILES): COc1cc2c(NS(=O)(=O)c3c(OC)cc(-c4nccc(CN(C)C)n4)cc3OC)noc2cc1Nc1cc(C2CC2)n[nH]1 [Example 222, N-{6-[(3-cyclopropyl-1 H-pyrazol-5-yl)amino]-5-methoxy-1,2-benzoxazol-3-yl}-4-{4-[(dimethylamino)methyl]pyrimidin-2-yl}-2,6-dimethoxybenzene-1-sulfonamide]
- Ki [1]: 4 nM
- Ki (KAT6A Full length enzyme): 0.5 nM
- Ki (KAT8 Full length enzyme): 958 nM
- Ki (KAT5 Full length enzyme): 27.9 nM
- Ki [3]: 4.5 nM

Structure (SMILES): COc1cc2c(NS(=O)(=O)c3c(OC)cc(-c4ncc(N5CCN(C)CC5)cn4)cc3OC)noc2cc1Nc1cc(C2CC2)n[nH]1 [Example 226, N-{6-[(3-cyclopropyl-1 H-pyrazol-5-yl)amino]-5-methoxy-1,2-benzoxazol-3-yl}-2,6-dimethoxy-4-[5-(4-methylpiperazin-1-yl)pyrimidin-2-yl]benzene-1-sulfonamide]
- Ki [1]: 2.4 nM
- Ki (KAT6A Full length enzyme): 0.3 nM
- Ki (KAT8 Full length enzyme): 572 nM
- Ki (KAT5 Full length enzyme): 11.6 nM
- Ki [3]: 3 nM
